The values that follow come from paper PMC2827632 (Biochemistry, 2010).

Positions count from the first letter of the chain named. Where two headings read alike, the source gives them in different places. A value given as a limit tells only on which side of the number the result lay.

In one data set the target is T1, porcine PDHC (Sus scrofa, UniProt P09623).
T1 sequence (P09623 36-509): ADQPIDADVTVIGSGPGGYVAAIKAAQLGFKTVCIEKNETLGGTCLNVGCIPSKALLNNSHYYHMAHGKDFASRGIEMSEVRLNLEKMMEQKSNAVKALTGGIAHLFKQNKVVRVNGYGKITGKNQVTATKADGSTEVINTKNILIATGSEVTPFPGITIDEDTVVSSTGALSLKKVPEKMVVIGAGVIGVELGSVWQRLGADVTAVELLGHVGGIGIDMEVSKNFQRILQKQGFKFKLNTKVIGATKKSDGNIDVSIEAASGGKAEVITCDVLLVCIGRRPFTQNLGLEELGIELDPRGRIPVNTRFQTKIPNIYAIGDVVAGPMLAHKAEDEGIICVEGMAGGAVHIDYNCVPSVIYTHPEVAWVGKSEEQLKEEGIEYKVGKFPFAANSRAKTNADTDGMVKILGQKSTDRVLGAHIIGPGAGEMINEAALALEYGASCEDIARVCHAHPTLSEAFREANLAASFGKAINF
The experiment in a line: Porcine PDHC assay. The format is biochemical.

The target in a further data set is T2, Mtb PDHC (Mycobacterium tuberculosis, UniProt P9WHH9).
T2 sequence (P9WHH9 1-464): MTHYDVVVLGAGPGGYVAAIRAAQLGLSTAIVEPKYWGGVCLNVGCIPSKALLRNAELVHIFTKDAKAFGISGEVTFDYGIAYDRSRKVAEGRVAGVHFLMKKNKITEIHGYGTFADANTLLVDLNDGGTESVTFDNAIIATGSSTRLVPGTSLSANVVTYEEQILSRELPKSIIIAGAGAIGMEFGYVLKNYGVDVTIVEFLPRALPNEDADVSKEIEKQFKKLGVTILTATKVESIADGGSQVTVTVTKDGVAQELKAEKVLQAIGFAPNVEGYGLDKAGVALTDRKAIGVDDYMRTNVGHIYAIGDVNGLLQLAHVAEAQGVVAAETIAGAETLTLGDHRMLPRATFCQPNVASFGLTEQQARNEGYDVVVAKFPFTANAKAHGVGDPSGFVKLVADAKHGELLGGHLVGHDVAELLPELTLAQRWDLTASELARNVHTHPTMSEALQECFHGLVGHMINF
The settings on record: read-out: IC50 Mtb PDHC; PDHC assay.

Data set [1] has as its system mouse bone marrow macrophages. As to the kind of experiment: cells. The format is cell-based. Conditions: for EC50: read-out: BMM EC50 (concentration at which viability is reduced to 50%).
For data set [2], the target named is T3, PDHC activity in Mtb lysates (Mycobacterium tuberculosis, UniProt P9WHH9).
T3 sequence (P9WHH9 1-464): T2 sequence (P9WHH9 1-464)
The format is biochemical.

The target in data set [3] is T4, human Lpd (Homo sapiens, UniProt P09622).
T4 sequence (P09622 36-509): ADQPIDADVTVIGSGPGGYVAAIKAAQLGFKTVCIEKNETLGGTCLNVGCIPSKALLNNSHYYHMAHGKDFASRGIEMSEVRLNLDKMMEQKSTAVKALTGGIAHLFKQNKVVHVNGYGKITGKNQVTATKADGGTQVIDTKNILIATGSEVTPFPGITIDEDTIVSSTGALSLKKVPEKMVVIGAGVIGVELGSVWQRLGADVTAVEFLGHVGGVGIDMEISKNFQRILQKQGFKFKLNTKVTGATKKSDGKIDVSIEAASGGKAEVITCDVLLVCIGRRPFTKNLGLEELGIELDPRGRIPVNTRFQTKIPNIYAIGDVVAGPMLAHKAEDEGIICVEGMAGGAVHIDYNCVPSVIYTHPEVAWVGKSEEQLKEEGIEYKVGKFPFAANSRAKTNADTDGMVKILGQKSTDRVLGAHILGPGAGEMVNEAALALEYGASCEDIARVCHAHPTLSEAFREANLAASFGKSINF
The experiment in a line: Human Lpd dihydrolipoamide-NAD+ spectrophotometric assay. The format is biochemical. The settings on record: dihydrolipoamide and NAD+ as substrates, up to 100 μM.

The next data set addresses T5, bovine Lpd (Bos taurus, UniProt F1N206).
T5 sequence (F1N206 36-509): T4 sequence (P09622 36-509) with I35V, Y62F, M65L, D86E, T94N, G135S, M181L, K285Q, P298T
The experiment in a line: Bovine Lpd DTNB assay. The format is biochemical.

Data set [4] has as its target T6, Mtb Lpd (Mycobacterium tuberculosis, UniProt P9WHH9).
T6 sequence (P9WHH9 1-464): T2 sequence (P9WHH9 1-464)

Data set [5] has as its target T4, human Lpd. As to the kind of experiment: Human Lpd DTNB assay. The format is biochemical. Conditions: for Inhibition of human Lpd (words): concentrations up to 100 μM.
Data set [6] concerns the target T7, bovine thioredoxin reductase (Bos taurus, UniProt O62768).
T7 sequence (O62768 1-499): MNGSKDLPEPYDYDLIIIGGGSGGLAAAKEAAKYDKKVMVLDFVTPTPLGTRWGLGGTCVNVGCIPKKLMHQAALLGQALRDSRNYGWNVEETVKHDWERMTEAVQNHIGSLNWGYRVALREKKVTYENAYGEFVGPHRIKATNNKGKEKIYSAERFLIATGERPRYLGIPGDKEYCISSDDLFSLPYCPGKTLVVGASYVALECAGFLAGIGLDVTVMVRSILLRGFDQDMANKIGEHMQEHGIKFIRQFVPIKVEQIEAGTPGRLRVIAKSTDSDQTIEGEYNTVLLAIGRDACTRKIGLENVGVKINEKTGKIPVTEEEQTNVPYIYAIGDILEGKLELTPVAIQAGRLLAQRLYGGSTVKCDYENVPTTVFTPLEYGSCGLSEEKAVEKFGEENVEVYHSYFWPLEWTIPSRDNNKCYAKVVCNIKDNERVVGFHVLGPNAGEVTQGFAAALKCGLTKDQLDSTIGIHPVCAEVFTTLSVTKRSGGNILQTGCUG
As to the kind of experiment: Bovine thioredoxin reductase DTNB assay. Type of data set: biochemical. The settings on record: for IC50: DTNB assay, 100 μM NADPH.

In data set [7] the target is T6, Mtb Lpd. The source holds these as a separate data set.
The target in data set [8] is T6, Mtb Lpd. This is another data set of the same source.
The data set “crystal structure” deals with the molecule itself. The experiment in a line: crystal structure.

Regarding `COc1ccc(C(=O)N2CCC3(CC2)C(=O)N(CC(=O)NCc2cccc(C(F)(F)F)c2)CN3c2ccccc2)c(OC)c1` [compound 4, 2-(8-(2,4-dimethoxybenzoyl)-4-oxo-1-phenyl-1,3,8-triazaspiro[4.5]decan-3-yl)-N-(3-(trifluoromethyl)benzyl) acetamide], the half-inhibitory concentration (IC50) on porcine PDHC (read-out: IC50 pPDHC, PDHC assay) is 100 µM; on Mtb PDHC it was 7.2 µM; at bovine Lpd (read-out: IC50 bLpd, DTNB assay), greater than 100 µM; on Mtb Lpd [4] (read-out: IC50 Mtb Lpd NADH-lipoamide, NADH-lipoamide assay), 2 µM; at human Lpd [5] (read-out: IC50 hLpd, DTNB assay), greater than 100 µM; in data set [6] (read-out: IC50 bTR), greater than 100 µM. For the same molecule, the 50% inhibitory concentration (IC50) was 2.1 µM on Mtb Lpd [7] (read-out: IC50 Mtb Lpd + BSA, DTNB assay with 100 μg/ml bovine serum albumin) and 2 µM on Mtb Lpd [7] (read-out: IC50 Mtb Lpd, DTNB assay). For the same molecule, the EC50 in [1] was greater than 100 µM. Moreover, the “IC50 for Lpd activity in Mtb extracts measured by inhibition of PDHC activity” value in data set [2] was “low micromolar range”. The “Inhibition of human Lpd, physiological direction” value on human Lpd [3] is recorded as “No inhibition”. Moreover, at human Lpd [5], the “Inhibition of human Lpd (words)” value is reported as “did not inhibit”. Further, the “Inhibition of Mtb Lpd in dihydrolipoamide-NAD+ assay” value on Mtb Lpd [8] is given as “inhibited”.

As for `COc1ccc(C(=O)N2CCC3(CC2)C(=O)N(CC(=O)NCCc2ccc(Cl)cc2Cl)CN3c2ccccc2)c(OC)c1` [compound 5, N-(2,4-dichlorophenethyl)-2-(8-(2,4-dimethoxybenzoyl)-4-oxo-1-phenyl-1,3,8-triazaspiro[4.5]decan-3-yl)acetamide], the IC50 was 100 µM on porcine PDHC, 100 µM on bovine Lpd, greater than 100 µM on human Lpd [5] and 20 µM in [6] (IC50 bTR). Moreover, the “Inhibition of porcine PDHC” value on porcine PDHC (Fig. 2C) was “minimally inhibits”. For the same molecule, the “Mouse bone marrow macrophage survival” value in [1] (100 μM (limit of solubility)) worked out at 80%. Besides, in data set [1] (Fig. 2C), the “Toxicity against primary mouse bone marrow macrophages” value was “no toxicity”. Moreover, the EC50 in [1] (Mus musculus, Bone marrow macrophage, 24 h) was greater than 100 µM. The “Inhibition of human Lpd, physiological direction” value at human Lpd [3] is recorded as “No inhibition”. The “Inhibition of bovine Lpd” value at bovine Lpd (Fig. 2C) is listed as “minimally inhibits”. Moreover, the “Mode of inhibition with respect to NADH” value on Mtb Lpd [4] (variable NADH 3.33 to 100 μM) was “noncompetitive”. In addition, the “Mode of inhibition with respect to lipoamide” value at Mtb Lpd [4] (variable lipoamide) is listed as “noncompetitive”. Further, the “Inhibition of human Lpd (words)” value on human Lpd [5] is given as “did not produce any measurable inhibition”; on human Lpd [5] (listed as Compound 5), “no inhibition”. For the same molecule, in [6] (Fig. 2C), the “Inhibition of bovine thioredoxin reductase” value is “minimally inhibits”. For the same molecule, the “Inhibition of Mtb Lpd in dihydrolipoamide-NAD+ assay” value at Mtb Lpd [8] was “inhibited”. For the same molecule, the “Mode of inhibition with respect to NAD+” value on Mtb Lpd [8] (variable NAD+ 25 μM to 2.5 mM) is given as “noncompetitive”.

B1: Mycobacterium tuberculosis lipoamide dehydrogenase (Lpd), residues 1-464 (enzyme)
chain: T2 sequence (P9WHH9 1-464)
Regarding B1, the binding result in the data set “crystal structure” was “binds”.
